The values that follow come from patent publication US20030092077A1, “Human sperm activator peptides” (priority 2001, published 2003).

Assay [1] concerns human sperm. Briefly: Sperm chemotaxis assay with phage displaying the peptide (two-chamber apparatus). Type of assay: cell-based. The following applies: 37° C. for 1 hr; for sperm count in the lower chamber: one experiment done in triplicate, phage displaying peptide. How it is done: (§1) Preparation of sperm: One tube (0.5 ml) of a sperm sample was thawed at room temperature for 15-20 mm. As soon as the sperm was thawed, 0.5 ml of Hams-F10 medium was added, and the sample transferred to a 5 ml culture tube. The sperm was diluted to 4 ml with Hams-F10 medium, mixed well, and centrifuged at 2000 rpm for 5 mm. The supernatant was decanted and the cells resuspended in 4 ml of fresh Hams-F 10 medium. The centrifugation was repeated and the clean sperm pellet resuspended in 1 ml Hams-F10 medium. A 50 μl sample aliquot was used per each assay condition.
Assay: The chambers of the assay apparatus were assembled with 8.iM membranes pre-wetted with Hams-F10 medium. A sample of phage containing a specific peptide sequence or a control peptide sequence was diluted with Hams-F10 medium to give a 100 ml phage containing solution which was placed in the bottom chamber of the apparatus. A sperm sample having at least 1×10^6 sperm was added to the upper chamber. After incubation 37° C. for 1 hr, the sample in the bottom chamber was collected into microfuge tubes and centrifuged at 6000 rpm for 5 mm. The supernatant was removed and the pellet resuspended in suitable volume to be counted in a hemocytometer.
Results: Various concentrations of phage containing the Husap peptide (TMGFTAPRFPHY; SEQ. ID. NO. 1), phage containing a control sequence (KSLSRHDHIHHH; SEQ. ID. NO. 20) or buffer without phage were used in the assays. Sperm counts 2-15 fold greater in the well containing the Husap peptide displaying phage were consistently obtained when compared to control phage or buffer-alone chambers. For example, in one experiment done in triplicate, the sperm count in the lower chamber was 76×10^4 for the Husap peptide compared to 5×10^4 for the control peptide and 21×10^4 for buffer alone.

In assay [2] the test system is human sperm. The experiment in a line: Effect of varying concentrations of Husap peptide on chemotaxis of human sperm. It is filed as cell-based. The following applies: 2.8×10^6 sperm in upper chamber, 5 micron membrane, 37° C. 1 h. How it is done:
as §1
The effect of varying concentrations of the Husap peptide on chemotaxis of human sperm was also determined. Sperm at a concentration of 2.8×10^6 were added to the upper chamber. The peptide concentration in the lower chamber was varied from 0 μl to […] of peptide. Sperm were separated from the lower chamber by a 5 micron membrane filter. The chambers were incubated at 37° C. for 1 h. At the end of the incubation, sperm were collected from the lower chamber and counted in a hemocytometer. The experiment was performed several times with varying peptide concentrations and with 5 and 8 micron membranes.

With “KSLSRHDHIHHH [control peptide, reference compound]”, the “sperm count in the lower chamber” value in the assay on human sperm [1] was 5×10^4.

Consider “NH2-Thr-Met-Gly-Phe-Thr-Ala-Pro-Arg-Phe-Pro-His-Tyr-COOH (H-TMGFTAPRFPHY-OH; listed as Homo sapiens) [Husap peptide, human sperm chemotactic peptide …]”, for which the “Sperm Count in Lower Chamber” value in the assay on human sperm [2] (HusaP concentration 10 uM) is recorded as 6 × 10^4; in the assay with human sperm [2] (HusaP concentration 20 uM) it was 12 × 10^4; with human sperm [2] (HusaP concentration 100 uM) it was 52 × 10^4. Besides, in the assay with human sperm [1], the “sperm count in the lower chamber” value is 76×10^4. The “Sperm counts, fold greater compared to control phage or buffer-alone chambers” value in the assay on human sperm [1] (phage displaying peptide in bottom chamber, various phage concentrations) is 2-15 fold.
